Legend:
[1] = Pharmacokinetics in blood; type: in vivo, mice
Method: The pharmacokinetics profile of ^64Cu-PSMA-CM in blood circulation was tested by injecting 3.7 MBq of ^64Cu-PSMA-CM into Balb/c male mice (n = 4).
An amount of 3.7 MBq (250 μL) of ^64Cu-PSMA-CM was intravenously injected into Babl/c male mice (n = 4). Blood was collected from the ophthalmic artery at different time points, then the radioactivity of blood was weighed and measured by a γ-counter. An injection of 2.5 μL was taken out as standard. The results were expressed as the percentage of injected dose per gram (%ID/g).
A two-phase decay Equation (1) in Graph Pad software (Graph Pad prism 5) was used to serve as the two-compartment model which models biological process of the probe by fitting the ID%/g versus to time of ^64Cu-PMA-CM to describe blood pharmacokinetics. Ct = Ae^−αt + Be^−βt(1) where A and B are relevant constants, and α and β are rate constants which were used to calculate as ln(2)/α and ln(2)/β for the half-life of distribution phase and elimination phase, respectively.

[2] = system: PSMA (+) 22Rv1 cells; assay: Cell uptake in 22Rv1 cells; type: cell-based, human; conditions: 120 min
Method: (§1) The 22Rv1 and PC-3 cell lines were plated on 24-well plates (2 × 10^5 cells/well). After incubating for 24 h, the medium was removed and washed with PBS (phosphate buffer saline, 0.01 M). Then, 500 μL medium with 74 KBq of ^64Cu-PSMA-CM was added to the well plates and co-incubated with cells at 37 °C for 10 min, 30 min, 60 min, and 120 min. The medium was then removed and the cells were washed twice with 1 mL of cold PBS. After that, cells were lysed with 1M NaOH, and then the NaOH solution was collected for analysis. For the blocking experiment, cells were co-incubated with ZJ-43 (1 µg/well), a PSMA inhibitor, for 120 min. Five samples of ^64Cu-PSMA-CM were taken out and were thought to be standard. The result was expressed as %IA/10^6 cells. For comparison, the cell uptake experiment of ^64Cu-PSMA-BCH in 22Rv1 cells was performed.

[3] = system: PSMA (−) PC-3 cells; assay: Cell uptake in PC-3 cells; type: cell-based, human
Method: as §1

[4] = In vitro stability in 5% human serum albumin; type: in vitro ADME; conditions: 37.0 °C, more than 48 h incubation
Method: (§2) The in vitro stability of ^64Cu-PSMA-CM was tested in 5% human serum albumin (HSA) and saline at 37.0 °C.
(§3) ^64Cu-PSMA-CM was incubated in saline or 5% human serum albumin (HSA) at 37 °C and the radiochemical purity was determined by radio-HPLC at different points in time (1 h, 4 h, 12 h, 24 h, and 48 h). For the stability in 5% HSA, 15 μL of mixture was taken out and precipitated by ethanol, filtered, and the supernatant was analyzed.

[5] = system: mice bearing 22Rv1 tumors; assay: Micro-PET imaging in mice bearing 22Rv1 xenograft tumors; type: in vivo
Method: An amount of 200 μL of ^64Cu-PSMA-CM (9.32 MBq) was injected into mice bearing 22Rv1 xenograft tumors via tail vein. For blocking, the mice were co-injected with 50 μg of ZJ-43. Imaging was performed on Super Nova PET/CT (PINGSENG, Shanghai, China). The mice were anaesthetized with 3% (v/v) isoflurane, then fixed on the bed at 4 h, 8 h, 12 h, 24 h, and 48 h p.i. Micro-PET scans were conducted with continuous 1% (v/v) isoflurane for 15 min. The images of ^64Cu-PSMA-CM were obtained at different time points and SUV mean values of regions of interest (ROIs) over the heart, kidney, muscle, liver, and tumor were collected. The ratio of tumor-to-non-target organs was then calculated at different time points. To better assess its […] in vivo, a comparison with ^64Cu-PSMA-BCH (5.55 MBq/mouse) of micro-PET imaging was performed in mice bearing 22Rv1 tumor models at 4 h p.i., 12 h p.i., and 24 h p.i. The mean standardized uptake value (SUVmean) in each organ was calculated according to following Formula (2). SUV = Activity VOI (MBq/mL)/Injected dose (MBq) × Body weight (g)(2)

[6] = target: T1, PSMA (Homo sapiens, UniProt Q04609); assay: Binding affinity to PSMA on 22Rv1 cells (dissociation constant); conditions: 2 h at 37 °C, one-site total model
T1 construct: endogenous in cells; host or cells: 22Rv1 cells
T1 sequence (Q04609 whole entry): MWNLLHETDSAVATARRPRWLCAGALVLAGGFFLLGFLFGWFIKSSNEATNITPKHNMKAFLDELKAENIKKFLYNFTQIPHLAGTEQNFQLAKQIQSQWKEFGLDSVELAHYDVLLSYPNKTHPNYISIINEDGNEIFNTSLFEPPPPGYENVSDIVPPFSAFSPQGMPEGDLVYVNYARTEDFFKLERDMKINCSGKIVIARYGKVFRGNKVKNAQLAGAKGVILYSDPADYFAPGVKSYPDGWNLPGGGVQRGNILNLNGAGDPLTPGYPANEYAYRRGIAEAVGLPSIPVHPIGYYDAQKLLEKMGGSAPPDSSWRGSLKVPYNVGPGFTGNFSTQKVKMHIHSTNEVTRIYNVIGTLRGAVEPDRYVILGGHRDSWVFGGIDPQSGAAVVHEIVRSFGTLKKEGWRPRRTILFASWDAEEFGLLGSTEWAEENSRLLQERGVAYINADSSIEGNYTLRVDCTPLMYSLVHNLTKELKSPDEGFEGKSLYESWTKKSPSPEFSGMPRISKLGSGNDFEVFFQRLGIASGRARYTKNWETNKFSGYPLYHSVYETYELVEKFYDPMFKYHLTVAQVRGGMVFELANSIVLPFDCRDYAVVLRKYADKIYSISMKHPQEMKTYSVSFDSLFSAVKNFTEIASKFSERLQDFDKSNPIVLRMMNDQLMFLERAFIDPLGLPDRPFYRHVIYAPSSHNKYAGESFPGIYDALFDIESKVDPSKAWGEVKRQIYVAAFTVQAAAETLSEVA
Method: The dissociation constant of ^64Cu-PSMA-CM was performed on 22Rv1 cells by adding different concentrations of ^64Cu-PSMA-CM (0.185–74 kBq/mL, 400 μL/well, 4 well/group) to the 24-well plate (2 × 10^5 cells/well). After incubation for 2 h at 37 °C, the medium was removed, the cells were washed twice with cold PBS and then lysed by 0.5 mL NaOH. The radioactivity of NaOH solution was measured and the dissociation constant was calculated using the one-site total model in Graph Pad software (Graph Pad prism 5). Similarly, the dissociation constant of ^64Cu-PSMA-CM was determined with the same protocol.

[7] = system: mice bearing 22Rv1 tumors; assay: Biodistribution in 22Rv1 tumor model mice; type: in vivo; conditions: for Biodistribution, Liver / Biodistribution, Spleen / Biodistribution, Blood / Biodistribution, Brain / Biodistribution, Heart / Biodistribution, Kidney / Biodistribution, LI (large intestine) / Biodistribution, Lung / Biodistribution, Muscle / Biodistribution, tumor: 22Rv1 male mice
Method: Twelve 22Rv1 tumor model mice were randomly divided into four groups and then ^64Cu-PSMA-CM (200 μL, 0.74 MBq/mouse) was injected via tail vein. […] Organs of interest including blood, heart, liver, spleen, lung, kidney, small intestine, large intestine, muscle, brain, and 22Rv1 tumor were collected. The organs were then weighed and measured for their radioactivity. Five samples of the 1% injection volume were taken out as a standard. The final uptake values of each organ were expressed as the percentage of injected dose per gram (%ID/g).

[8] = Partition coefficient (octanol/PBS); type: physicochemical; conditions: octanol / PBS (0.1 M, pH 7.4)
Method: Amounts of 10 μL of ^64Cu-PSMA-CM in saline (0.37 MBq), 990 μL of phosphate-buffered saline (PBS, 0.1 M, pH 7.4), and 1mL of octanol were mixed in a tube. The mixture was vortexed for 3 min and centrifuged (3000 rpm × 5 min). Then, five samples (100 μL) from each phase were removed and the radioactivity was measured. The experiment was repeated three times. The partition coefficient value was calculated as below: P = (average of counts in octanol/average of counts in PBS), the value was expressed as log P ± SD.

[9] = In vitro stability in saline; type: physicochemical; conditions: 37.0 °C, more than 48 h incubation
Method: as §2, §3

[10] = blood activity–time profile, in Figure 5
[11] = blood activity–time profile, in Figure 5, in h
[12] = blood, mice, 3.7 MBq i.v., two-phase decay fit

O=C([O-])CN1CCN(CC(=O)[O-])CCN(CC(=O)NC(CNC(CC(=O)NC[C@H]2CC[C@H](C(=O)N[C@H](Cc3ccc4ccccc4c3)C(=O)NCCCC[C@H](NC(=O)N[C@@H](CCC(=O)O)C(=O)O)C(=O)O)CC2)C(=O)NCCOCCOCCNC(=O)CCN2C(=O)C=CC2=O)Cc2ccccc2)CC1.[64Cu+2] (stereo partly drawn) [^64Cu-PSMA-CM]
KFast [1, 10]: 4.287
KSlow [1, 10]: 0.1765
Half Life (Fast) [1, 11]: 0.1617
Half Life (Slow) [1, 11]: 3.927
half-life of the distribution phase [1, 12]: 9.6 min
half-life of the elimination phase [1, 12]: 3.93 h
highest uptake value in PSMA (+) 22Rv1 cells [2]: 5.45 ± 0.42 IA%/10^6 cells
uptake in 22Rv1 cells [2]: 5.45 ± 0.42 %IA/10^6 cells
uptake in 22Rv1 cells blocked by ZJ-43 ([2]; co-incubated with ZJ-43 (1 µg/well)): 3.38 ± 0.04 IA%/10^6 cells
uptake in PSMA (−) PC-3 cells ([3]; 120 min): 1.79 ± 0.20 IA%/10^6 cells
blocking of uptake in PC-3 cells by excess of ZJ-43 ([3]; p > 0.05): cannot be blocked
radiochemical purity (RCP) after incubation in 5% HSA [4]: over 95%
SUV mean value in 22Rv1 tumor (highest accumulation) ([5]; 24 h p.i.): 1.88 ± 0.04
uptake in tumors and kidneys when co-injected with excess ZJ-43 ([5]; ZJ-43 50 μg, p < 0.001): significantly decreased
Kd [6]: 4.58 nM
highest uptake in 22Rv1 tumor ([7]; 22Rv1-beared male mice, 24 h p.i.): 14.29 ± 1.44 %ID/g
uptake in kidneys ([7]; 22Rv1-beared male mice, within 1 h): 95.84 ± 3.33 %ID/g
Biodistribution, Liver [7]: 8.50±1.06 ID%/g
Biodistribution, Spleen [7]: 2.65±0.55 ID%/g
Biodistribution, Blood ([7]; 1 h): 16.95 ± 3.05 ID%/g
Biodistribution, Brain ([7]; 1 h): 0.69±0.07 ID%/g
Biodistribution, Heart ([7]; 1 h): 4.49±0.47 ID%/g
Biodistribution, Kidney ([7]; 1 h): 95.84±3.33 ID%/g
Biodistribution, LI (large intestine) ([7]; 1 h): 3.75±0.11 ID%/g
Biodistribution, Liver ([7]; 1 h): 5.34 ± 1.13 ID%/g
Biodistribution, Lung ([7]; 1 h): 9.91±0.43 ID%/g
Biodistribution, Muscle ([7]; 1 h): 1.15±0.09 ID%/g
Biodistribution, Spleen ([7]; 1 h): 8.48±3.35 ID%/g
Biodistribution, tumor ([7]; 1 h): 8.09±1.66 ID%/g
Biodistribution, Blood ([7]; 6 h): 12.33±2.83 ID%/g
Biodistribution, Brain ([7]; 6 h): 0.47±0.05 ID%/g
Biodistribution, Heart ([7]; 6 h): 4.16±0.62 ID%/g
Biodistribution, Kidney ([7]; 6 h): 26.78±0.69 ID%/g
Biodistribution, LI (large intestine) ([7]; 6 h): 2.85±0.06 ID%/g
Biodistribution, Liver ([7]; 6 h): 5.24±0.59 ID%/g
Biodistribution, Lung ([7]; 6 h): 8.47±1.45 ID%/g
Biodistribution, Muscle ([7]; 6 h): 1.22±0.25 ID%/g
Biodistribution, Spleen ([7]; 6 h): 4.63±1.13 ID%/g
Biodistribution, tumor ([7]; 6 h): 8.51±1.99 ID%/g
Biodistribution, Blood ([7]; 12 h): 5.41±0.94 ID%/g
Biodistribution, Brain ([7]; 12 h): 0.44±0.06 ID%/g
Biodistribution, Heart ([7]; 12 h): 1.96±0.35 ID%/g
Biodistribution, Kidney ([7]; 12 h): 14.19±1.40 ID%/g
Biodistribution, LI (large intestine) ([7]; 12 h): 4.32±0.69 ID%/g
Biodistribution, Lung ([7]; 12 h): 6.28±0.72 ID%/g
Biodistribution, Muscle ([7]; 12 h): 1.24±0.77 ID%/g
Biodistribution, tumor ([7]; 12 h): 14.29±1.44 ID%/g
Biodistribution, Blood ([7]; 24 h): 2.83±0.41 ID%/g
Biodistribution, Heart ([7]; 24 h): 0.95±0.21 ID%/g
Biodistribution, Kidney ([7]; 24 h): 8.92±0.41 ID%/g
Biodistribution, LI (large intestine) ([7]; 24 h): 2.81±0.35 ID%/g
Biodistribution, Liver ([7]; 24 h): 6.14±0.23 ID%/g
Biodistribution, Lung ([7]; 24 h): 5.60±0.23 ID%/g
Biodistribution, Spleen ([7]; 24 h): 2.31±0.26 ID%/g
Biodistribution, tumor ([7]; 24 h): 10.57±1.23 ID%/g
log P [8]: −2.25 ± 0.05
radiochemical purity (RCP) after incubation in saline [9]: over 95%
